The values below come from PMC9607578, “Chemopreventive Effect on Human Colon Adenocarcinoma Cells of Styrylquinolines: Synthesis, Cytotoxicity, Proapoptotic Effect and Molecular Docking Analysis” (Molecules, 2022).

In experiment [1] the test system is SW480 cells. Description: Intracellular ROS production, 2',7'-DCFDA probe. The settings on record: SW480, 48 h, treated at IC50, mean ± SE. Type of experiment: cell-based, human. On the procedure: (§1) In order to evaluate the effect of the chosen styrylquinolines on the production of ROS in malignant cells, the 2′,7′-dichlorofluorescein diacetate (2′,7′-DCFDA) probe (Calbiochem, San Diego, CA, USA) was used as described by Kim et al.. Briefly, malignant cells were seeded at a final density of 2.5 × 10^5 cells/well in 6-well tissue culture plates for 24 h at 37 °C in a 5% CO2 atmosphere. […] After treatment, 2′,7′-DCFDA was added to a final concentration of 10 µM and incubated at 37 °C for 30 min. Finally, representative images of each well were taken using a fluorescence microscope (Axio Vert. A1; ZEISS, Jena, Germany) and Zen blue 3.4 software. The cell lysate was obtained from each well, and relative fluorescence units (RFU) were measured at excitation/emission wavelength (Ex/Em) = 485/525 nm using the Varioskan Lux microplate reader (Thermo Fisher Scientific, Waltham, MA, USA). The total protein concentration was quantified with the BCA method using the Pierce^TM BCA kit (Thermo Fisher Scientific, Waltham, MA, USA) to normalize the UFR.

Experiment [2] relates to SW620 cells. Description: Intracellular ROS production, 2',7'-DCFDA probe. The experiment is classed as cell-based, human. The following applies: SW620, 24 h, treated at IC50, mean ± SE. The protocol: as §1
Experiment [3] has as its system SW480 cells. The experiment is described as follows: Cytotoxic activity, sulforhodamine B (SRB) staining. Type of experiment: cell-based, human. The following applies: for IC50: Homo sapiens, SW480, mean ± SE, read-out: SW480 IC50. The protocol:
(§2) For the biological assays, the human colon adenocarcinoma cell line SW480 and its metastatic derivative SW620 were used. Additionally, the nonmalignant cell line HaCaT was used to find the selectivity index of the compounds. All cell lines were obtained by the Colombian Plant Chemistry Group of the Faculty of Exact and Natural Sciences of the University of Antioquia (Medellín, Colombia) from the European Collection of Authenticated Cell Cultures (ECACC, Salisbury, UK). Cells were cultured in a DMEM medium with 4500 mg/L of glucose and L-glutamine (Sigma-Aldrich, Burlington, MA, USA), supplemented with 10% heat-inactivated (56 °C) horse serum (Gibco, Waltham, MA, USA), 1% penicillin/streptomycin (Sigma-Aldrich, Burlington, MA, USA), and 1% non-essential amino acids (Sigma-Aldrich, Burlington, MA, USA). For all experiments, horse serum was reduced to 3%, and the medium was supplemented with […] of transferrin, 5 ng/mL of selenium, and […] of insulin (ITS; Sigma-Aldrich, Burlington, MA, USA). All cell lines were incubated at 37 °C in a 5% CO2 atmosphere. Additionally, cell cultures were constantly monitored with PCR (Sigma-Aldrich, Burlington, MA, USA) for Mycoplasma spp. to control contamination with this agent.
(§3) To evaluate the effect of styrylquinolines on the viability of the SW480, SW620, and HaCaT cell lines, sulforhodamine B (SRB) staining was used. SRB is a colorimetric assay that indirectly estimates the number of living cells based on the ability of SRB to bind to protein components of adherent cells. Briefly, the malignant cell lines were seeded at a final density of 2.0 × 10^4 cells/well, and the nonmalignant cell line was seeded at a final density of 1.5 × 10^4 cells/well in 96-well tissue culture plates. All cell lines were incubated at 37 °C in a 5% CO2 atmosphere for 24 h to enable cell adherence, and they were then treated for 24 and 48 h with increasing concentrations (0.01–160 µM) of the styrylquinolines or their respective precursors (8-hydroxyquinoline and resveratrol), as well as 1% DMSO (negative control) and 5-FU (standard drug). After treatment, cells were fixed with trichloroacetic acid (50% v/v; PanReac AppliChem, Barcelona, Spain) for a period of one hour at 4 °C. After this, the cells were incubated for 30 min at room temperature with 0.4% (w/v) SRB (Sigma-Aldrich, Burlington, MA, USA). To remove unbound SRB, the cells were washed with 1% acetic acid, and the plates were allowed to dry at room temperature. Protein-bound SRB was solubilized with 10 mM Tris-base (Amresco, Cleveland, OH, USA) for 30 min at room temperature under constant agitation, and absorbance was measured at 490 nm in a microplate reader (Bio-Rad iMark^TM, Hercules, CA, USA). Finally, the concentration of the compound that inhibits 50% of cell growth (IC50) and the selectivity index (SI) were determined.

For experiment [4], the system named is SW620 cells. Described as above. The experiment is classed as cell-based, human. The settings on record: for IC50: Homo sapiens, SW-620, mean ± SE, read-out: SW620 IC50. The protocol: as §2, §3
Experiment [5] relates to HaCaT cells. The experiment is described as above. Type of experiment: cell-based. The settings on record: Homo sapiens, mean ± SE, read-out: HaCaT IC50. The protocol: as §2, §3
Experiment [6] deals with SW480 cells. The experiment is described as follows: Antiproliferative activity, SRB staining, 0-8 days. The experiment is classed as cell-based, human. The following applies: for Concentration required to significantly decrease cell viability percentage from day 2 post-treatment: SW480, day 2; for Concentration from which cell viability percentage is decreased to 0% / high percentage of reduction: SW480, treatment up to 8 days. On the procedure: (§4) The antiproliferative activity of styrylquinolines with higher selective cytotoxicity toward malignant cells was also tested with SRB staining. Briefly, cells were seeded to a final density of 2.5 × 10^3 cells/well in 96-well tissue culture plates and incubated under the same conditions described for cytotoxic activity. After 24 h, the cells were treated with increasing concentrations (5–80 µM) of the selected hybrids or with 1% DMSO (negative control) for 0, 2, 4, 6, and 8 days. Culture media were replaced every 48 h to guarantee the basic nutrients required for cell growth and viability, maintaining the concentrations of each of the selected hybrids. After each incubation time, cells were fixed and stained, and the absorbance was measured as described above.

The subject of experiment [7] is SW620 cells. Description: Antiproliferative activity, SRB staining, 0-8 days. The experiment is classed as cell-based, human. The following applies: for Concentration required to significantly decrease cell viability percentage from day 2 post-treatment: SW620, day 2; for Concentration from which cell viability percentage is decreased to 0% / high percentage of reduction: SW620, treatment up to 8 days. The protocol:
as §4

Experiment [8] relates to SW620 cells. The experiment is described as follows: Apoptosis, APO-DIRECT kit (FITC-dUTP/PI), flow cytometry. Type of experiment: cell-based, human. The settings on record: treated at IC50. The protocol: To assess whether the chosen styrylquinolines generated apoptosis in malignant cells, the APO-DIRECT^TM kit (Chemicon^R International, Temecula, CA, USA) was used following the manufacturer’s instructions. Briefly, the malignant cells were seeded at a final density of 1.1 × 10^6 cells in a T75 culture flask and incubated for 24 h at 37 °C in a 5% CO2 atmosphere. […] After incubation time, cells were fixed and stained with FITC-dUTP and propidium iodide (PI), respectively, according to the manufacturer’s protocol. Analysis was conducted via flow cytometry (LSR Fortessa; BD Biosciences, San Jose, CA, USA) and FlowJo 7.6 software. All PI-FITC-positive cells were considered to be apoptotic cells.

For experiment [9], the system named is SW480 cells. Description: Immunological markers, ProcartaPlex 18-plex panel, MAGPIX. Type of experiment: cell-based, human. The following applies: at IC50. The protocol:
(§5) To assess whether styrylquinolines had any effect on the expression of immunological markers associated with the inflammatory process, malignant cells were seeded at a final density of 2.5 × 10^5 cells/well in 6-well tissue culture plates, and cell adherence was allowed. […] After the incubation time, the supernatant was collected, and the levels of the following analytes were measured using the ProcartaPlex Human Th1/Th2/Th9/Th17/Th22/Treg 18-plex panel (Invitrogen) according to the manufacturer’s protocol: GM-CSF, IFN-γ, TNF-α, IL-10, IL-12p70, IL-13, IL-17A, IL-18, IL-1β, IL-2, IL-21, IL-22, IL-23, IL-27, IL-4, IL-5, IL-6, and IL-9. Furthermore, to evaluate the participation of these hybrids in the production of some markers associated with the apoptosis process (Bcl-2, active Caspase-3 and cleaved PARP) in colorectal cancer cells, the human apoptosis panel (Invitrogen, Waltham, Massachusetts, United States) was used following the manufacturer’s instructions. To normalize the concentration of each marker, total proteins were quantified using the PierceTM BCA kit (Thermo Fisher Scientific, Waltham, MA, USA).
(§6) In both cases, the reading was performed in the MAGPIX marker multiplex analyzer (Luminex XMAP, Austin, TX, USA). The concentration of each molecule was extrapolated from the calibration curve (individual for each marker) obtained from the standards provided by the kit.

The subject of experiment [10] is SW620 cells. Described as above. The settings on record: at IC50. The experiment is classed as cell-based, human. The protocol:
as §5, §6

Experiment [11] concerns SW620 cells. Description: Apoptosis markers (Bcl-2, active caspase 3, cleaved PARP), human apoptosis panel, MAGPIX. The experiment is classed as cell-based. The following applies: vs negative control. The protocol: as §5, §6

“Also recorded” adds a separate entry of the source. Read-outs that look alike come from different tables or passages of the source.

For `Oc1ccc(/C=C/c2ccc3cccc(O)c3n2)cc1O` [Compound 3d], the values for the ROS levels in experiment [1] and in experiment [2] were 3.3 ± 0.2 RFU and 1.8 ± 0.1 RFU, respectively. The entries for the “SI (IC50 HaCaT / IC50 SW480)” value in experiment [3] (24 h treatment) and in experiment [3] (48 h treatment) were 1.0 and 1.9, respectively. The IC50 in experiment [3] (24 h treatment) came to 160 ± 16.6 µM; in experiment [3] (48 h treatment), 42.5 ± 5.2 µM; in experiment [4] (24 h treatment), 54.6 ± 7.5 µM; in experiment [4] (48 h treatment), 6.4 ± 1.1 µM; in [5] (24 h treatment), 164 ± 14.1 µM; in experiment [5] (48 h treatment), 78.9 ± 2.3 µM. Moreover, the “SI (IC50 HaCaT / IC50 SW620)” value in experiment [4] (24 h treatment) is on record as 3.0; in experiment [4] (48 h treatment), 12.3. The “Concentration required to significantly decrease cell viability percentage from day 2 post-treatment” value in experiment [6] is 40 µM; in experiment [7] it was 20 µM. Also, the “Concentration from which cell viability percentage is decreased to 0% / high percentage of reduction” value in experiment [6] and in experiment [7] was 40 µM throughout.
For the molecule `Oc1ccc(/C=C/c2ccc3cccc(O)c3n2)cc1` [Compound 3a], the “Apoptotic cells (cell death by apoptosis)” value in experiment [8] (SW620, 24 h) turned out to be 6.8%; in [8] (SW620, 48 h) it was 21.5%. For the same molecule, the results for the “SI (IC50 HaCaT / IC50 SW480)” value in experiment [3] (24 h treatment) and in experiment [3] (48 h treatment) were 3.4 and 1.8, respectively. For the same molecule, the IC50 in experiment [3] (24 h treatment) was found to be 67.7 ± 2.8 µM; in [3] (48 h treatment), 26.5 ± 4 µM; in [4] (24 h treatment), 60.5 ± 2.9 µM; in experiment [4] (48 h treatment), 16.6 ± 2.2 µM; in experiment [5] (24 h treatment), 232 ± 29.2 µM; in experiment [5] (48 h treatment) it was 47.9 ± 3.3 µM. For the same molecule, the results for the “SI (IC50 HaCaT / IC50 SW620)” value in [4] (24 h treatment) and in experiment [4] (48 h treatment) were 3.8 and 2.9, respectively. Further, the “Levels of immunological markers” value in [9] (SW480, 24 h post-treatment) was “significant increases in the levels of GM-CSF, IFN gamma, IL-12p70, IL-4, IL-6, IL-10, and IL-17A”; in experiment [9] (SW480, 48 h post-treatment) it was “significant increases in GM-CSF, IFN gamma, IL-4, IL-6, IL-10 and IL-17A levels; also recorded: significant increases in the levels of IL-1 beta, IL-13, IL-18, IL-2, TNF alpha, IL-22, IL-27, and IL-9”; in [10] (SW620, 24 h post-treatment), “significant increase in the levels of GM-CSF, IL-13, IL-18, IL-4, TNF alpha, IL-22, and IL-9”; in experiment [10] (SW620, 48 h post-treatment), “levels of IL-4 and IL-10 were significantly increased”. The “Levels of Bcl-2 and cleaved PARP” value in experiment [11] (SW620, 24 and 48 h) is on record as “did not show significant differences”. Besides, the “Levels of active caspase 3” value in experiment [11] (SW620, 24 and 48 h post-treatment) was “significantly increased”. Further, the “Concentration required to significantly decrease cell viability percentage from day 2 post-treatment” value in experiment [6] is 20 µM; in [7] it was 5 µM. For the same molecule, the “Concentration from which cell viability percentage is decreased to 0% / high percentage of reduction” value in [6] and in experiment [7] was 10 µM in each case.
